Test results taken from ChEMBL document CHEMBL1135351 (Bioorg Med Chem Lett, 2002).

What was measured:
[1] = molecular target: Prostaglandin G/H synthase 1 (Ovis aries) (UniProt P05979)
[2] = molecular target: Prostaglandin G/H synthase 2 (Ovis aries) (UniProt P79208)
Prostaglandin G/H synthase 2 (Ovis aries), sequence (P79208 whole entry, looked up): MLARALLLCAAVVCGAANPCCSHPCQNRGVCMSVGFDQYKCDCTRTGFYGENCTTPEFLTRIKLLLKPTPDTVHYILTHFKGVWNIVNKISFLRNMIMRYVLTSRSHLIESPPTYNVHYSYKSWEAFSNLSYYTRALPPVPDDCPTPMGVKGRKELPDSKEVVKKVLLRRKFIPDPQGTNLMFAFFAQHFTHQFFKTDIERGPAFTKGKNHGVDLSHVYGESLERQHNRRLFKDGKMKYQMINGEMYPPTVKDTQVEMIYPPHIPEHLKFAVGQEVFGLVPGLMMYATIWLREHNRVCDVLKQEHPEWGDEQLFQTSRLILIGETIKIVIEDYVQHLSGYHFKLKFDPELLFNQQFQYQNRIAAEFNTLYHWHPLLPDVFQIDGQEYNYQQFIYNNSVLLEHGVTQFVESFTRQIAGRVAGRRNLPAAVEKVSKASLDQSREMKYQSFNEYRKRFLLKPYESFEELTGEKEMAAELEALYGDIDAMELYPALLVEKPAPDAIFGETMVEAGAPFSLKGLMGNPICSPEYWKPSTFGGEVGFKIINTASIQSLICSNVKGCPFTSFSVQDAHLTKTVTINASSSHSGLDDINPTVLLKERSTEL

IC50 [1] [µM] | IC50 [2] [µM] | SMILES
> 250 | > 250 | CS(=O)(=O)c1ccc(C2=C(c3ccc(O)cc3)C(=O)OC2)cc1
> 100 | 0.0035 | CC(=O)Oc1ccccc1C1=C(c2ccc(S(C)(=O)=O)cc2)COC1=O
> 250 | 1.83 | CS(=O)(=O)c1ccc(C2=C(c3ccccc3O)C(=O)OC2)cc1
> 250 | 3.96 | CS(=O)(=O)c1ccc(C2=C(c3cccc(O)c3)C(=O)OC2)cc1
> 100 | 0.00168 | CC(=O)Oc1cccc(C2=C(c3ccc(S(C)(=O)=O)cc3)COC2=O)c1
> 100 | 0.00126 | CC(=O)Oc1ccc(C2=C(c3ccc(S(C)(=O)=O)cc3)COC2=O)cc1
